These results are taken from US11331290B2, “Niclosamide for the treatment of cancer metastasis” (Max-Delbrück-Centrum für Molekulare Medizin in der …, priority 2011, dated 2022).

The subject of the test is HCT116 cells. Put plainly: Boyden chamber transwell migration assay. It counts as cell-based, human. Conditions: for cell migration rate, mean %: 1 μM daily for 3 days. As to the method: HCT116, SW620, LS174T, SW480 and DLD-1 cells were used in cell migration and invasion analysis performed with Boyden chamber assay. 400 μL containing 2.5×10^5 cells were seeded into each transwell chamber with filter membranes of 12.0 μm pore size (Millipore, Schwalbach, Germany). For invasion filter membranes were coated with 50 μL Matrigel (diluted 1:3 in RPMI-1640; BD Biosciences) 10 minutes before cells were seeded. Fresh medium (600 μL) were added to the bottom chamber and cells were allowed to attach to the insets for 15 hours. […] Afterwards insets were removed and cells that had migrated through the membrane to the lower chamber were trypsinized and counted in a Neubauer chamber (LO-Laboroptik, Bad Homburg, Germany). Each well was counted ten times. Each migration or invasion experiment was performed in duplicate. The average number of migrated or invaded cells was determined for at least three independent experiments.
(A) Chemical structure of niclosamide and its derivatives. In 2D illustrations the niclosamide structure was compared with the structure of niclosamide derivatives; marked in solid circles or boxes are added chemical groups, marked in grey and surrounded by dotted lines are removed chemical groups. In 3D illustrations grey clouds represent van der Waals surface, red and blue indicate negative and positive charges, respectively. (B) S100A4 expression under treated conditions. HCT116 cells were treated with 1 μM niclosamide or one of the niclosamide derivatives for 24 hours. S100A4 expression was analyzed by qRT-PCR and immunoblot. (C) Cell migration under treated conditions. HCT116 cells were treated with 1 μM niclosamide or one of its derivatives for 24 hours and cell migration was determined by Boyden chambder assay. Cells migrated to the lower chamber were counted and normalized to the number of migrated, solvent-treated HCT116 cells. Comparison of niclosamide or derivative-treated vs. solvent-treated cells was performed by two-sided one-way analysis of variance and Bonferroni post hoc multiple comparison test. Data is given as mean±SE at least four independent experiments each performed in duplicates.
For WNT pathway analysis the following cells were applied: HCT116 cells (heterozygous for gain-of-function-mutated CTNNB1; wt/mut), HAB-68mut cells (deletion mutant of HCT116, expressing only gain-of-function-mutated CTNNB1: −/mut) and HAB-92 wt cells (deletion mutant of HCT116, expressing only wild-type CTNNB1: wt/−). (A) CTNNB1 genotype dependent effect of niclosamide on LEF/TCF transcription factor reporter gene expression. Cells were treated with 1 μM niclosamide for 24 hours. Reporter gene expression was determined by luciferase activity measurement. For each condition and cell line TOPflash expression was normalized to FOPflash expression. (B) CTNNB1 genotype dependent effect of niclosamide on S100A4 expression. Cells were treated with 1 μM niclosamide for 24 hours. S100A4 expression was analyzed by qRT-PCR and immunoblot. (C) CTNNB1 genotype dependent effect of niclosamide on migration rates. Cells were treated with 1 μM niclosamide for 24 hours and cell migration was determined by Boyden chamber assay. Data represents mean±SE of at least three independent experiments. Differences were analyzed by Student's t test (n.s.; not statistically significant). (D) Nuclear localization of CTNNB1 under niclosamide treatment. Nuclear extracts of HCT116 cells treated with the indicated concentrations of niclosamide for 18 hours were analyzed by immunoblot. (E) Effect of niclosamide on CTNNB1/TCF complex. Nuclear extracts of HCT116 cells treated with the indicated concentrations of niclosamide for 18 hours were analyzed by EMSA for the TCF-binding site of the S100A4 promoter. Supershift was performed by addition of a monoclonal anti-CTNNB1 antibody. (F) Presence of CTNNB1 on the S100A4 promoter under niclosamide treatment. HCT116 cells were treated with 1 μM niclosamide for 18 hours and processed for ChIP assay. […]

Turning to `O=C(Nc1ccc([N+](=O)[O-])cc1Cl)c1cc(Cl)ccc1O` [niclosamide, 2′,5-dichloro-4′-nitrosalicylanilide], the “cell migration rate, mean %” value worked out at 18.7% (24 hours post-treatment, control 100.0%); 12.2% (48 hours post-treatment, control 100.0%); 10.4% (72 hours post-treatment, control 108.8%). Also, the “migration rate, mean difference control vs niclosamide” value (1 μM, 24 h (relative scale)) is 0.54. Besides, the “migration rate, mean (relative to HCT116 control)” value (1 μM, 24 h, control 1.00) is 0.45. Moreover, the “migration, mean difference control vs niclosamide” value reads like this: (24 hours post-treatment) 81.3%; (48 hours post-treatment) 87.8%; (72 hours post-treatment) 98.4%.
